According to patent US8183262B2, “Pyridine derivatives as mGluR2 antagonists” (Hoffmann-La Roche Inc., priority 2007, dated 2012):

In the case of Nc1ncc(-c2cn(-c3cc(C(F)(F)F)cc(-c4ccc(C(F)(F)F)cc4)n3)cn2)cn1 [Example 66, 5-{1-[4-Trifluoromethyl-6-(4-trifluoromethyl-phenyl)-pyridin-2-yl]-1H-imidazol-4-yl}-pyrimidin-2-ylamine], the melting point is reported as > 250 °C.
In the case of CC(C)(CO)NS(=O)(=O)c1cccc(-c2cn(-c3cc(C(F)(F)F)cc(-c4ccc(C(F)(F)F)cc4)n3)cn2)c1 [Example 291, N-(2-Hydroxy-1,1-dimethyl-ethyl)-3-{1-[4-trifluoromethyl-6-(4-trifluoromethyl-phenyl)-pyridin-2-yl]-1H-imidazol-4-yl}-benzenesulfonamide], the melting point is reported as 150 °C (dec.).
In the case of Cc1cc(-c2ccc(C(F)(F)F)cc2)cc(-c2cccc(-c3ccc(S(N)(=O)=O)s3)n2)n1 [Example 317, 5-[6′-Methyl-4′-(4-trifluoromethyl-phenyl)-[2,2′]bipyridinyl-6-yl]-thiophene-2-sulfonic acid amide], the melting point is reported as 243 °C (dec.).

First: Cc1cc(-c2ccc(Cl)c(Cl)c2)nc(-n2cnc(-c3cnc(N)nc3)c2)n1 [Example 144, 5-{1-[4-(3,4-Dichloro-phenyl)-6-methyl-pyrimidin-2-yl]-1H-imidazol-4-yl}-pyrimidin-2-ylamine]
Second: Cc1cc(-c2ccc(Cl)c(Cl)c2)nc(-n2cnc(-c3cccc(S(C)(=O)=O)c3)c2)n1 [Example 214, 4-(3,4-Dichloro-phenyl)-2-[4-(3-methanesulfonyl-phenyl)-imidazol-1-yl]-6-methyl-pyrimidine]
The melting point of the first is higher: 255.5 °C for the first, 213 °C for the second.

Compared with Cc1cc(-c2cc(C(F)(F)F)nc(-c3cccc(-c4ccc(S(N)(=O)=O)s4)c3)n2)ccc1C(F)(F)F [Example 207, 5-{3-[4-(3-Methyl-4-trifluoromethyl-phenyl)-6-trifluoromethyl-pyrimidin-2-yl]-phenyl}-thiophene-2-sulfonic acid amide], Cc1cc(-c2cc(C(F)(F)F)nc(-c3nc(-c4cccc(S(N)(=O)=O)c4)no3)n2)ccc1C(F)(F)F [Example 129, 3-{5-[4-(3-Methyl-4-trifluoromethyl-phenyl)-6-trifluoromethyl-pyrimidin-2-yl]-[1,2,4}oxadiazol-3-yl]-benzenesulfonamide] is higher in melting point: 216 °C for the first, 223.5 °C for the second.

First: NS(=O)(=O)c1ccc(-c2noc(-c3nc(-c4ccc(Cl)c(Cl)c4)cc(C(F)(F)F)n3)n2)cc1 [Example 98, 4-{5-[4-(3,4-Dichloro-phenyl)-6-trifluoromethyl-pyrimidin-2-yl]-[1,2,4]oxadiazol-3-yl}-benzenesulfonamide]
Second: NS(=O)(=O)c1ccc(-c2noc(-c3nc(-c4ccc(C(F)(F)F)cc4)cc(C(F)(F)F)n3)n2)cc1 [Example 15, 4-{5-[4-Trifluoromethyl-6-(4-trifluoromethyl-phenyl)-pyrimidin-2-yl]-[1,2,4]oxadiazol-3-yl}-benzenesulfonamide]
The melting point of the first is higher: 302.5 °C for the first, 302 °C for the second.

First: Nc1ccc(-c2cc(-c3cc(-c4ccc(C(F)(F)F)cc4)cc(C4CC4)n3)ccn2)cn1 [Example 77, 6-Cyclopropyl-4-(4-trifluoromethyl-phenyl)-[2,4′;2′,3″]terpyridin-6″-ylamine]
Second: Nc1ncc(-c2cc(-c3cc(-c4ccc(C(F)(F)F)cc4)cc(C4CC4)n3)ccn2)cn1 [Example 78, 5-[6-Cyclopropyl-4-(4-trifluoromethyl-phenyl)-[2,4′]bipyridinyl-2′-yl]-pyrimidin-2-ylamine]
The melting point of the first is lower: 172 to 174 °C for the first, 242 to 245 °C for the second.

Compared with NS(=O)(=O)c1ccc(-c2cc(-c3nc(-c4ccc(Cl)c(Cl)c4)cc(C(F)(F)F)n3)ccn2)s1 [Example 205, 5-{4-[4-(3,4-Dichloro-phenyl)-6-trifluoromethyl-pyrimidin-2-yl]-pyridin-2-yl}-thiophene-2-sulfonic acid amide], Cc1cc(-c2ccc(C(F)(F)F)cc2)nc(-c2ccnc(-c3ccc(S(N)(=O)=O)s3)c2)n1 [Example 197, 5-{4-[4-Methyl-6-(4-trifluoromethyl-phenyl)-pyrimidin-2-yl]-pyridin-2-yl}-thiophene-2-sulfonic acid amide] is lower in melting point: 266 °C for the first, 263.5 °C for the second.

Compared with Cc1cc(-c2ccc(C(F)(F)F)cc2)cc(-c2cccc(-c3cccc(S(=O)(=O)N4CCCC4)c3)n2)n1 [Example 369, 6-Methyl-6′-[3-(pyrrolidine-1-sulfonyl)-phenyl]-4-(4-trifluoromethyl-phenyl)-[2,2′]bipyridinyl], Cc1cc(-c2ccc(C(F)(F)F)cc2)cc(-c2nc(-c3cccc(S(=O)(=O)NC(C)(C)C)c3)cs2)n1 [Example 263, N-tert-Butyl-3-{2-[6-methyl-4-(4-trifluoromethyl-phenyl)-pyridin-2-yl]-thiazol-4-yl}-benzenesulfonamide] is higher in melting point: 174 °C for the first, 196 °C for the second.

First: Cc1cc(-c2ccc(C(F)(F)F)cc2)cc(-n2cnc(-c3ccc(N)nc3)c2)n1 [Example 58, 5-{1-[6-Methyl-4-(4-trifluoromethyl-phenyl)-pyridin-2-yl]-1H-imidazol-4-yl}-pyridin-2-ylamine]
Second: Nc1ccc(-c2cn(-c3nc(-c4ccc(Cl)cc4)cc(C(F)(F)F)n3)cn2)cn1 [Example 14, 5-{1-[4-(4-Chloro-phenyl)-6-trifluoromethyl-pyrimidin-2-yl]-1H-imidazol-4-yl}-pyridin-2-ylamine]
The melting point of the first is lower: 224 to 226 °C for the first, 254 °C for the second.

Compared with NS(=O)(=O)c1cccc(-c2cc(-c3nc(-c4ccc(F)c(F)c4)cc(C(F)(F)F)n3)ccn2)c1 [Example 400, 3-{4-[4-(3,4-Difluoro-phenyl)-6-trifluoromethyl-pyrimidin-2-yl]-pyridin-2-yl}-benzenesulfonamide], NS(=O)(=O)c1cccc(-c2cc(-c3nc(-c4ccc(Cl)cc4)cc(C(F)(F)F)n3)ccn2)c1 [Example 179, 3-{4-[4-(4-Chloro-phenyl)-6-trifluoromethyl-pyrimidin-2-yl]-pyridin-2-yl}-benzenesulfonamide] is lower in melting point: 233.5 °C for the first, 182 °C for the second.

First: O=S(=O)(c1cccc(-c2cc(-c3nc(-c4ccc(C(F)(F)F)cc4)cc(C(F)(F)F)n3)ccn2)c1)N1CCC(O)C1 (racemic) [Example 407, (RS)-1-(3-{4-[4-Trifluoromethyl-6-(4-trifluoromethyl-phenyl)-pyrimidin-2-yl]-pyridin-2-yl}-benzenesulfonyl)-pyrrolidin-3-ol]
Second: O=S(=O)(NCC1CC1)c1cccc(-c2cc(-c3nc(-c4ccc(C(F)(F)F)cc4)cc(C(F)(F)F)n3)ccn2)c1 [Example 408, N-Cyclopropylmethyl-3-{4-[4-trifluoromethyl-6-(4-trifluoromethyl-phenyl)-pyrimidin-2-yl]-pyridin-2-yl}-benzenesulfonamide]
The melting point of the first is higher: 234 °C for the first, 133.5 °C for the second.

Going from Cc1cc(-c2cc(C(F)(F)F)nc(-n3cnc(-c4ccc(S(N)(=O)=O)cc4)c3)n2)ccc1C(F)(F)F [Example 212, 4-{1-[4-(3-Methyl-4-trifluoromethyl-phenyl)-6-trifluoromethyl-pyrimidin-2-yl]-1H-imidazol-4-yl}-benzenesulfonamide] to Cc1cc(-c2ccc(C(F)(F)F)cc2)nc(-n2cnc(-c3ccc(S(N)(=O)=O)cc3)c2)n1 [Example 183, 4-{1-[4-Methyl-6-(4-trifluoromethyl-phenyl)-pyrimidin-2-yl]-1H-imidazol-4-yl}-benzenesulfonamide], the melting point rises from 287 °C to 323 °C.

Compared with O=S(=O)(NCCO)c1cccc(-c2cccc(-c3nc(-c4ccc(C(F)(F)F)cc4)cc(C(F)(F)F)n3)c2)c1 [Example 391, 3′-[4-Trifluoromethyl-6-(4-trifluoromethyl-phenyl)-pyrimidin-2-yl]-biphenyl-3-sulfonic acid (2-hydroxy-ethyl)-amide], NS(=O)(=O)c1cccc(-c2cccc(-c3nc(-c4ccc(Cl)cc4)cc(C(F)(F)F)n3)c2)c1 [Example 178, 3′-[4-(4-Chloro-phenyl)-6-trifluoromethyl-pyrimidin-2-yl]-biphenyl-3-sulfonic acid amide] is higher in melting point: 153 °C for the first, 165 °C for the second.

Compared with Cc1c(-c2ccc(N)nc2)ncn1-c1nc(-c2ccc(C(F)(F)F)cc2)cc(C(F)(F)F)n1 [Example 154, 5-{5-Methyl-1-[4-trifluoromethyl-6-(4-trifluoromethyl-phenyl)-pyrimidin-2-yl]-1H-imidazol-4-yl}-pyridin-2-ylamine], CCOc1cc(-c2cc(C(F)(F)F)nc(-n3cnc(-c4ccc(N)nc4)c3)n2)ccc1C(F)(F)F [Example 87, 5-{1-[4-(3-Ethoxy-4-trifluoromethyl-phenyl)-6-trifluoromethyl-pyrimidin-2-yl]-1H-imidazol-4-yl}-pyridin-2-ylamine] is higher in melting point: 252 °C for the first, 266.5 °C for the second.

First: Cc1cc(-c2ccc(C(F)(F)F)cc2)nc(-n2cnc(-c3cccnc3)c2)n1 [Example 48, 4-Methyl-2-(4-pyridin-3-yl-imidazol-1-yl)-6-(4-trifluoromethyl-phenyl)-pyrimidine]
Second: FC(F)(F)c1cc(-c2ccc(Cl)cc2)nc(-n2cnc(-c3ccncc3)c2)n1 [Example 25, 4-(4-Chloro-phenyl)-2-(4-pyridin-4-yl-imidazol-1-yl)-6-trifluoromethyl-pyrimidine]
The melting point of the first is lower: 208 to 210 °C for the first, 269 °C for the second.

First: Cc1cc(-c2ccc(Cl)c(Cl)c2)cc(-c2ccc(N3C=CC=CC3N)s2)n1 (stereo not drawn) [Example 254, 1-{5-[4-(3,4-Dichloro-phenyl)-6-methyl-pyridin-2-yl]-thiophen-2-yl}-pyridin-2-ylamine]
Second: Cc1cc(-c2ccc(Cl)cc2)cc(-c2cccc(-c3cnc(N)nc3)c2)n1 [Example 82, 5-{3-[4-(4-Chloro-phenyl)-6-methyl-pyridin-2-yl]-phenyl}-pyrimidin-2-ylamine]
The melting point of the first is lower: 180 °C for the first, 197 to 199 °C for the second.

Compared with Nc1ccc(-c2cccc(-c3nc(-c4ccc(C(F)(F)F)c(F)c4)cc(C(F)(F)F)n3)c2)cn1 [Example 96, 5-{3-[4-(3-Fluoro-4-trifluoromethyl-phenyl)-6-trifluoromethyl-pyrimidin-2-yl]-phenyl}-pyridin-2-ylamine], Cc1cc(-c2ccc(C(F)(F)F)c(C)c2)nc(-c2cccc(-c3cccc(S(N)(=O)=O)c3)c2)n1 [Example 416, 3′-[4-Methyl-6-(3-methyl-4-trifluoromethyl-phenyl)-pyrimidin-2-yl]-biphenyl-3-sulfonic acid amide] is higher in melting point: 212 °C for the first, 222.5 °C for the second.
